Measurements published in patent publication US10414763B2 (CANCER RESEARCH TECHNOLOGY LIMITED, priority 2014, dated 2019).

molecular target: T1, full-length human PKCι (Homo sapiens, UniProt P41743); test: PKCι IC50 IMAP fluorescence polarisation assay, full-length enzyme, 150 μM ATP; format: biochemical; details: read-out: IC50 in IMAP assay against full length PKCi at 150 μM ATP
T1 construct: Recombinant, full-length human PKCι expressed in Sf21 insect cells is also commercially available; purchased EMD Millipore; host or cells: Sf21 insect cells (baculovirus)
T1 sequence (P41743 1-596): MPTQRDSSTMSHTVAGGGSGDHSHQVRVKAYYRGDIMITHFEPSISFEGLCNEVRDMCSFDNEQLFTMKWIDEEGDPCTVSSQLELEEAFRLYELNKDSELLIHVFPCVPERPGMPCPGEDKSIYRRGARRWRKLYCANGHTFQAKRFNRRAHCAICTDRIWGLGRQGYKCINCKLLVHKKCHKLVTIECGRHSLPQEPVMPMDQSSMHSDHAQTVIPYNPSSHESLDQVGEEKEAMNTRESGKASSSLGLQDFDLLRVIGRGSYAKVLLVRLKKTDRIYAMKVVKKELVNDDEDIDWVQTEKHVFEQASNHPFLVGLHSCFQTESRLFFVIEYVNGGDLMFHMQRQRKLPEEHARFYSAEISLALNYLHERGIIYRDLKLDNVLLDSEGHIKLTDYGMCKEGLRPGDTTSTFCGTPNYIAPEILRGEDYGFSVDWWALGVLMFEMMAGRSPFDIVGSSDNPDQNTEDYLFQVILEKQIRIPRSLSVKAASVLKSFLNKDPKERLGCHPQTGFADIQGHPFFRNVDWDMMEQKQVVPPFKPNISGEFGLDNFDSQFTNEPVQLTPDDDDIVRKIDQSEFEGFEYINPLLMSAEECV
Method in brief: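 IMAP fluorescence polarisation kinase assay: 15 pM baculovirus-expressed human PKCiota with 100 nM FAM-pseudosubstrate peptide and 150 μM ATP, 1 h at 25 °C. IMAP detection reagent then 2 h at 25 °C before FP measurement. Inhibition referenced to no-compound and no-enzyme controls for IC50 fitting.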

Compound | IC50 [nM]
c1ccc2c(c1)[nH]c1nccc(-c3nc(NCC4COCCN4)c4c(C5CCC5)cncc4n3)c12 (stereo not shown) [Example 251, [5-Cyclobutyl-2-(9H-pyrido[2,3-b]indol-4-yl)-pyrido[3,4-d]pyrimidin-4-yl]-morpholin-3-ylmethyl-amine] | 1000 to 10000
O[C@@H]1CCN(c2nc(-c3ccnc4[nH]c5ccccc5c34)nc3cncc(C4CCC4)c23)C1 [Example 252, (R)-1-[5-Cyclobutyl-2-(9H-pyrido[2,3-b]indol-4-yl)-pyrido[3,4-d]pyrimidin-4-yl]-pyrrolidin-3-ol] | 1000 to 10000
O[C@H]1CCN(c2nc(-c3ccnc4[nH]c5ccccc5c34)nc3cncc(C4CCC4)c23)C1 [Example 253, (S)-1-[5-Cyclobutyl-2-(9H-pyrido[2,3-b]indol-4-yl)-pyrido[3,4-d]pyrimidin-4-yl]-pyrrolidin-3-ol] | 1000 to 10000
CC1CC(Nc2nc(-c3ccnc(Nc4ncccc4F)c3)nc3cncc(C4CC4)c23)CC(C)N1 (stereo not shown) [Example 260, {5-Cyclopropyl-2-[2-(3-fluoro-pyridin-2-ylamino)-pyridin-4-yl]-pyrido[3,4-d]pyrimidin-4-yl}-(2,6-dimethyl-piperidin-4-yl)-amine] | 100 to 1000
CC1(C)CNCC[C@@H]1Nc1nc(-c2ccnc(Nc3cncc(F)c3)c2)nc2cncc(C3CC3)c12 [Example 265, 5-cyelopropyl-N-[(4S)-3,3-dimethyl-4-piperidyl]-2-[2-[(5-fluoro-3-pyridyl)amino]-4-pyridyl]pyrido[3,4-d]pyrimidin-4-amine] | 100 to 1000
CC1(C)CNCC[C@@H]1Nc1nc(-c2ccnc(Nc3cncc(Cl)c3)c2)nc2cncc(C3CC3)c12 [Example 266, 2-[2-[(5-chloro-3-pyridyl)amino]-4-pyridyl]-5-cyclopropyl-N-[(4S)-3,3-dimethyl-4-piperidyl]pyrido[3,4-d]pyrimidin-4-amine] | 100 to 1000
CC1(C)CNCC[C@@H]1Nc1nc(-c2ccnc(N[C@H](C(=O)O)c3ccccc3)c2)nc2cncc(C3CC3)c12 [Example 267, (2S)-2-[[4-[5-cyclopropyl-4-[[(4S)-3,3-dimethyl-4-piperidyl]amino]pyrido[3,4-d]pyrimidin-2-yl]-2-pyridyl]amino]-2-phenyl-acetic acid] | 1000 to 10000
COc1cncc2nc(-c3ccnc(Nc4ncccc4F)c3)nc(N[C@H]3CCNCC3(C)C)c12 [Example 269, N-[(4S)-3,3-dimethyl-4-piperidyl]-2-[2-[(3-fluoro-2-pyridyl)amino]-4-pyridyl]-5-methoxy-pyrido[3,4-d]pyrimidin-4-amine] | 100 to 1000
CC1(C)CNCC[C@@H]1Nc1nc(-c2ccnc(Nc3nc4ccccn4n3)c2)nc2cncc(C3CCC3)c12 [Example 275, {5-Cyclobutyl-2-[2-([1,2,4]triazolo[1,5-a]pyridin-2-ylamino)-pyridin-4-yl]-pyrido[3,4-d]pyrimidin-4-yl}-((S)-3,3-dimethyl-piperidin-4-yl)-amine] | < 100
CC1(C)CNCC[C@@H]1Nc1nc(-c2ccnc(Nc3nc(F)c(F)cc3F)c2)nc2cncc(C3CC3)c12 [Example 278, {5-Cyclopropyl-2-[2-(3,5,6-trifluoro-pyridin-2-ylamino)-pyridin-4-yl]-pyrido[3,4-d]pyrimidin-4-yl}-((S)-3,3-dimethyl-piperidin-4-yl)-amine] | < 100
Cn1c(Nc2cc(-c3nc(N[C@H]4CCNCC4(C)C)c4c(C5CCC5)cncc4n3)ccn2)nc2ccccc21 [Example 281] | < 100
Cn1nc(Nc2cc(-c3nc(N[C@H]4CCNCC4(C)C)c4c(C5CCC5)cncc4n3)ccn2)c2ccccc21 [Example 284, {5-Cyclobutyl-2-[2-(1-methyl-1H-indazol-3-ylamino)-pyridin-4-yl]-pyrido[3,4-d]pyrimidin-4-yl}-((S)-3,3-dimethyl-piperidin-4-yl)-amine] | < 100
CC1(C)CNCC[C@@H]1Nc1nc(-c2cccc(Nc3nc(F)ccc3F)c2)nc2cncc(C3CCC3)c12 [Example 315, {5-Cyclobutyl-2-[3-(3,6-difluoro-pyridin-2-ylamino)-phenyl]-pyrido[3,4-d]pyrimidin-4-yl}-((S)-3,3-dimethyl-piperidin-4-yl)-amine] | 100 to 1000
CC1(C)CNCC[C@@H]1Nc1nc(-c2ccnc(Nc3ncc(Cl)cc3F)c2)nc2cncc(C3CCC3)c12 [Example 316, {2-[2-(5-Chloro-3-fluoro-pyridin-2-ylamino)-pyridin-4-yl]-5-cyclobutyl-pyrido[3,4-d]pyrimidin-4-yl}-((S)-3,3-dimethyl-piperidin-4-yl)-amine] | < 100
CC1(C)CNCC[C@@H]1Nc1nc(-c2ccnc(Nc3cccc(C#N)n3)c2)nc2cncc(C3CCC3)c12 [Example 317, 6-{4-[5-Cyclobutyl-4-((S)-3,3-dimethyl-piperidin-4-ylamino)-pyrido[3,4-d]pyrimidin-2-yl]-pyridin-2-ylamino}-pyridine-2-carbonitrile] | < 100
CC1(C)CNCC[C@@H]1Nc1nc(-c2ccnc(Nc3ccc4cccc(F)c4n3)c2)nc2cncc(C3CCC3)c12 [Example 318, {5-Cyclobutyl-2-[2-(8-fluoro-quinolin-2-ylamino)-pyridin-4-yl]-pyrido[3,4-d]pyrimidin-4-yl}-((S)-3,3-dimethyl-piperidin-4-yl)-amine] | < 100

The next lines start with the values.

IC50 [nM] | Compound
< 100 | c1ccc2c(c1)[nH]c1nccc(-c3nc(N4CCC5(CCCNC5)C4)c4c(C5CCC5)cncc4n3)c12 (stereo not shown) [Example 250, 4-[5-Cyclobutyl-4-(2,7-diaza-spiro[4.5]dec-2-yl)-pyrido[3,4-d]pyrimidin-2-yl]-9H-pyrido[2,3-b]indole]
< 100 | CC1(C)CNCC[C@@H]1Nc1nc(-c2ccnc(Nc3c(F)cccc3F)c2)nc2cncc(C3CC3)c12 [Example 254, {5-Cyclopropyl-2-[2-(2,6-difluoro-phenylamino)-pyridin-4-yl]-pyrido[3,4-d]pyrimidin-4-yl}-((S)-3,3-dimethyl-piperidin-4-yl)-amine]
< 100 | CC1(C)CNCC[C@@H]1Nc1nc(-c2ccnc(Nc3c(F)cccc3F)c2)nc2cncc(C3CCC3)c12 [Example 255, {5-Cyclobutyl-2-[2-(2,6-difluoro-phenylamino)-pyridin-4-yl]-pyrido[3,4-d]pyrimidin-4-yl}-((S)-3,3-dimethyl-piperidin-4-yl)-amine]
< 100 | Fc1ccc(F)c(Nc2cc(-c3nc(N4CCOC5CNCC54)c4c(C5CCC5)cncc4n3)ccn2)n1 (stereo not shown) [Example 256, {4-[5-Cyclobutyl-4-(hexahydro-pyrrolo[3,4-b]-1,4-oxazin-4-yl)-pyrido[3,4-d]pyrimidin-2-yl]-pyridin-2-yl}-(3,6-difluoro-pyridin-2-yl)-amine]
< 100 | Cc1cc2c(-c3nc(N4CCOC5CNCC54)c4c(C5CCC5)cncc4n3)ccnc2[nH]1 (stereo not shown) [Example 257, 5-Cyclobutyl-4-(hexahydro-pyrrolo[3,4-b]-1,4-oxazin-4-yl)-2-(2-methyl-1H-pyrrolo[2,3-b]pyridin-4-yl)-pyrido[3,4-d]pyrimidine]
< 100 | Fc1cccc(F)c1Nc1cc(-c2nc(N3CCOC4CNCC43)c3c(C4CCC4)cncc3n2)ccn1 (stereo not shown) [Example 258, {4-[5-Cyclobutyl-4-(hexahydro-pyrrolo[3,4-b]-1,4-oxazin-4-yl)-pyrido[3,4-d]pyrimidin-2-yl]-pyridin-2-yl}-(2,6-difluoro-phenyl)-amine]
< 100 | Fc1cccnc1-c1cc2c(-c3nc(N4CCOC5CNCC54)c4c(C5CCC5)cncc4n3)ccnc2[nH]1 (stereo not shown) [Example 259, 5-Cyclobutyl-2-[2-(3-fluoro-pyridin-2-yl)-1H-pyrrolo[2,3-b]pyridin-4-yl]-4-(hexahydro-pyrrolo[3,4-b]-1,4-oxazin-4-yl)-pyrido[3,4-d]pyrimidine]
< 100 | CC1(C)CNCC[C@@H]1Nc1nc(-c2ccnc(Nc3cccnc3)c2)nc2cncc(C3CCC3)c12 [Example 264, 5-cyclobulyl-N-[(4S)-3,3-dimethyl-4-piperidyl]-2-[2-(3-pyridylamino)-4-pyridyl]pyrido[3,4-d]pyrimidin-4-amine]
< 100 | COc1cncc2nc(-c3ccnc(Nc4nc(F)ccc4F)c3)nc(N[C@H]3CCNCC3(C)C)c12 [Example 268, 2-[2-[(3,6-difluoro-2-pyridyl)amino]-4-pyridyl]-N-[(4S)-3,3-dimethyl-4-piperidyl]-5-methoxy-pyrido[3,4-d]pyrimidin-4-amine]
< 100 | Cc1cccc(Nc2cc(-c3nc(N[C@H]4CCNCC4(C)C)c4c(C5CCC5)cncc4n3)ccn2)n1 [Example 271, {5-Cyclobutyl-2-[2-(6-methyl-pyridin-2-ylamino)-pyridin-4-yl]-pyrido[3,4-d]pyrimidin-4-yl}-((S)-3,3-dimethyl-piperidin-4-yl)-amine]
< 100 | Cc1nc(Nc2cc(-c3nc(N[C@H]4CCNCC4(C)C)c4c(C5CCC5)cncc4n3)ccn2)ccc1C#N [Example 272]
< 100 | CC1(C)CNCC[C@@H]1Nc1nc(-c2ccnc(Nc3nc4ccccc4o3)c2)nc2cncc(C3CCC3)c12 [Example 274, {2-[2-(Benzoxazol-2-ylamino)-pyridin-4-yl]-5-cyclobutyl-pyrido[3,4-d]pyrimidin-4-yl}-((S)-3,3-dimethyl-piperidin-4-yl)-amine]
